Measurements: PubChem BioAssay AID2744 (NMMLSC, 2010)
Active and inactive are the calls of the source.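 Rule for the calls: active = fitted half-maximal concentration for changing reporter fluorescence at or below a set limit; inactive = the rest.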

Biological target: Citrate synthase, peroxisomal (Saccharomyces cerevisiae (strain ATCC 204508 / S288c)) (UniProt P08679)
Assay: yeast TOR pathway CIT2-GFP reporter potency – flow cytometry, MLPCN hits, dose response (AID 2744)
Conditions: S. cerevisiae CIT2-GFP strain, 3 h; for GFP fluorescence, higher = induction: at 33 µM (top of the series); for EC50: flow cytometry fluorescence

Citrate synthase, peroxisomal (Saccharomyces cerevisiae (strain ATCC 204508 / S288c)), sequence (P08679 whole entry, looked up): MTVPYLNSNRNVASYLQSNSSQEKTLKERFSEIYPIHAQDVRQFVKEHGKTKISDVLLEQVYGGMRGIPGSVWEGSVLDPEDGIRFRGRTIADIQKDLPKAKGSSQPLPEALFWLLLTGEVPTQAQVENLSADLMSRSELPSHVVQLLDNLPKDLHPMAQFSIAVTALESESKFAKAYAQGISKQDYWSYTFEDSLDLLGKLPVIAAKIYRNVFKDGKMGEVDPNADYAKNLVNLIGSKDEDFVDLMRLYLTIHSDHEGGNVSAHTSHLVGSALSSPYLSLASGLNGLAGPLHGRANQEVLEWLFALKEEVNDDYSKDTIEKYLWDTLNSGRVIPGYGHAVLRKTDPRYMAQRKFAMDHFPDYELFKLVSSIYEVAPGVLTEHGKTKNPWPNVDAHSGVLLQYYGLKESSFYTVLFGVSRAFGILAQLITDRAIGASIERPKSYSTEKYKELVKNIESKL

COc1ccc(NC(=O)/C(C#N)=C/c2ncc([N+](=O)[O-])n2C)c(OC)c1
GFP fluorescence, higher = induction: inactive

O=[N+]([O-])c1ccc(N=Nc2c(Cl)cc(O)cc2Cl)cc1
GFP fluorescence, higher = induction: inactive

c1ccc(-c2cccc(-c3ccccn3)n2)nc1
GFP fluorescence, higher = induction: inactive

N=C1S/C(=C\c2ccco2)C(=O)N1c1nccs1
GFP fluorescence, higher = induction: inactive

CCOC(=O)CSC1=NC(=O)/C(=C/c2ccc(OC)cc2)S1
GFP fluorescence, higher = induction: inactive

CC(C)(C)c1ccc(NC(=O)COC(=O)c2ccc([N+](=O)[O-])s2)cc1
GFP fluorescence, higher = induction: inactive

O=c1c2sc(-c3ccccc3)cc2nc2n1CCC2
GFP fluorescence, higher = induction: inactive

Cc1cccc2c1NC(=O)/C2=C\C(=O)c1cccs1
GFP fluorescence, higher = induction: inactive

O=S(=O)(CCN(CCS(=O)(=O)C(F)(F)F)CC1CCCO1)C(F)(F)F (configuration not stated)
GFP fluorescence, higher = induction: inactive

Cc1ccc(S(=O)(=O)ON2C(=O)c3ccccc3C2=O)c(C)c1
GFP fluorescence, higher = induction: inactive

Cc1ccc(/C=N/Nc2ncc(Cl)cc2Cl)s1
GFP fluorescence, higher = induction: inactive

Cc1c(Cc2ccccc2)c(NCCN(C)C)n2c(nc3ccccc32)c1C#N
GFP fluorescence, higher = induction: inactive

CCN(CC)c1ccc2cc(-c3nc4ccccc4[nH]3)c(=O)oc2c1
GFP fluorescence, higher = induction: inactive

O=C(Oc1c(Cl)cc(Cl)c2cccnc12)c1cccc([N+](=O)[O-])c1
GFP fluorescence, higher = induction: inactive

Cc1ccccc1C(=O)NNC(=S)NC(=O)c1ccc(Cl)cc1Cl
GFP fluorescence, higher = induction: inactive

O=C(/C=C/c1ccccn1)c1ccc(Br)cc1O
GFP fluorescence, higher = induction: inactive

CN(C)NC(=S)Nc1ccc(S(=O)(=O)N2CCCCC2)cc1
GFP fluorescence, higher = induction: inactive

CC(Oc1cc2oc(=O)c3c(c2cc1Cl)CCC3)C(=O)NCCN1CCOCC1 (configuration not stated)
GFP fluorescence, higher = induction: inactive

CC1(C)C[C@H]2C=C(C=O)[C@]3(C=O)C[C@]3(C)[C@H]2C1
EC50: 1410 nM

CCN1/C(=C/c2ccc3cc(C)ccc3[n+]2CC)Sc2ccc3sccc3c21
GFP fluorescence, higher = induction: inactive

CC(=O)Oc1oc(-c2ccccc2)nc1C=Nc1ccc(N(C)C)cc1
GFP fluorescence, higher = induction: inactive

CN(C)c1ccc(N=Cc2nc(-c3ccccc3)oc2OC(=O)c2ccccc2)cc1
GFP fluorescence, higher = induction: inactive

Cc1ccc(N2C(=O)C(Cl)=C(Nc3c(C)n(C)n(-c4ccccc4)c3=O)C2=O)cc1
GFP fluorescence, higher = induction: inactive

COc1ccc(N2C(=O)C(Cl)=C(NCc3ccccc3)C2=O)cc1
GFP fluorescence, higher = induction: inactive

CC1=C/C(=N\OS(=O)(=O)c2ccccc2)C(C)=CC1=O
GFP fluorescence, higher = induction: inactive

COc1ccc([N+](=O)[O-])c(S(=O)(=O)c2ccccc2)n1
GFP fluorescence, higher = induction: inactive

CC1=NNC(=O)/C1=C\c1cn(-c2ccccc2)nc1-c1cccs1
GFP fluorescence, higher = induction: inactive

Cc1ccc2c(c1)c(/C=C/c1cc[n+](C)cc1)c(C)n2C
GFP fluorescence, higher = induction: inactive

CC(C)(C)C(=O)NC(=S)NNC(=O)c1ccc(-c2ccccc2)cc1
GFP fluorescence, higher = induction: inactive

O=C(Nc1ccc(NC(=O)c2cc3ccccc3o2)cc1)c1ccco1
GFP fluorescence, higher = induction: inactive

CCOC(=O)c1c(C)oc2c1c(C(c1cccnc1)N1CCOCC1)c(O)c1ccccc12 (configuration not stated)
GFP fluorescence, higher = induction: inactive

Oc1c(C(Nc2nc3ccccc3s2)c2ccco2)ccc2cccnc12 (configuration not stated)
GFP fluorescence, higher = induction: inactive

CCOC(=O)c1cc(-c2ccc(/C=C3/C(=O)NC(=O)C(C#N)=C3C)o2)ccc1Cl
GFP fluorescence, higher = induction: inactive

O=C1c2cccc3c([N+](=O)[O-])ccc(c23)C(=O)N1CCc1ccccn1
GFP fluorescence, higher = induction: inactive

Cc1ccccc1[C@]1(C)ON(c2ccccc2C(F)(F)F)C1=O
GFP fluorescence, higher = induction: inactive

O=C1c2cccc3c([N+](=O)[O-])ccc(c23)C(=O)N1c1ccccn1
GFP fluorescence, higher = induction: inactive

O=C1ON=C(c2ccc(Cl)cc2)/C1=C/c1ccc(O)cc1
GFP fluorescence, higher = induction: inactive

Cn1ncc(S(=O)(=O)Cc2ccccc2)c(Cl)c1=O
GFP fluorescence, higher = induction: inactive

CNC(CC(=O)c1ccc([N+](=O)[O-])cc1)C(Cl)(Cl)Cl (configuration not stated)
GFP fluorescence, higher = induction: inactive

Cc1[nH]c2ccccc2c1C(=O)COC(=O)c1ccc([N+](=O)[O-])s1
GFP fluorescence, higher = induction: inactive

Cc1cccc(OCCN2CSC(=S)N(C)C2)c1
GFP fluorescence, higher = induction: inactive

O=[N+]([O-])c1ccc(-c2cn3nc(-c4ccccc4)c(-c4ccccc4)nc3n2)cc1
GFP fluorescence, higher = induction: inactive

COc1cc(N=c2ssnc2Cl)cc(OC)c1
GFP fluorescence, higher = induction: inactive

N#C/C(=C\c1ccccn1)c1nc2ccccc2s1
GFP fluorescence, higher = induction: inactive

COc1cccc(N=Nc2ccc(O)c3ncccc23)c1
GFP fluorescence, higher = induction: inactive

O=C1Nc2ccc(Br)cc2/C1=C/C(=O)c1ccc2c(c1)OCO2
GFP fluorescence, higher = induction: inactive

CCn1c(=O)c(C(C)=O)c(O)c2ccccc21
GFP fluorescence, higher = induction: inactive

CS(=O)(=O)N1N=C(c2ccccc2)CC1c1ccc2c(c1)OCO2 (configuration not stated)
GFP fluorescence, higher = induction: inactive

Oc1ccc(COCc2ccccc2)c2cccnc12
GFP fluorescence, higher = induction: inactive

CC(=O)Nc1ncnc2c1c(-c1ccc(Cl)cc1)nn2C(C)(C)C
GFP fluorescence, higher = induction: inactive

COC(=O)CCCC1=CC2=CC(=O)C(C)(OC(=O)CCc3ccccc3)C(=O)C2=CO1 (configuration not stated)
GFP fluorescence, higher = induction: inactive

O=C(c1ccc([N+](=O)[O-])o1)N1CCN(c2nc3c(F)cc(F)cc3s2)CC1
GFP fluorescence, higher = induction: inactive

COc1ccc(NC2=C(Cl)C(=O)N(CCc3ccccc3)C2=O)c(OC)c1
GFP fluorescence, higher = induction: inactive

N#Cc1c2ccc([N+](=O)[O-])cc2[n+]([O-])n1-c1ccccc1
GFP fluorescence, higher = induction: inactive

Cc1nn2c(NCc3ccccn3)c3c(nc2c1-c1ccccc1)CCC3
GFP fluorescence, higher = induction: inactive

O=C(Nc1cccc(C(F)(F)F)c1)Oc1ccc(Cl)c2cccnc12
GFP fluorescence, higher = induction: inactive

C#CCOCCOCCOCCNc1nc(N2CCN(C(=O)CCCCCCCCCCNC(=O)[C@@H](CCC(=O)O)n3cc(CCCCCN)nn3)CC2)nc(N2CCN(C(=O)CCCCCCCCCCNC(=O)[C@H](CCCCN)n3cc(C[C@@H](C)CC)nn3)CC2)n1
GFP fluorescence, higher = induction: inactive

C=C1C(O)[C@@H]2O[C@]3(CC[C@H](/C=C/C(C)[C@@H]4CC(C)=CC5(O[C@H](C[C@@](C)(O)C(=O)O)CCC5O)O4)O3)CC[C@H]2O[C@@H]1C(O)CC(C)[C@H]1OC2(CCCCO2)CCC1C (some centres not stated)
GFP fluorescence, higher = induction: inactive

O=[N+]([O-])c1cnc(Sc2ccncn2)s1
GFP fluorescence, higher = induction: inactive

O=[N+]([O-])c1cc(F)c2cccnc2c1O
GFP fluorescence, higher = induction: inactive

O=C(C#Cc1cccc([N+](=O)[O-])c1)c1ccccc1
GFP fluorescence, higher = induction: inactive

O=C(C#Cc1ccccc1)c1cccc([N+](=O)[O-])c1
GFP fluorescence, higher = induction: inactive

O=C1C=CC(=O)N1c1ccc(O)cc1
GFP fluorescence, higher = induction: inactive

Oc1ccc2ccccc2c1/C=N/Nc1nnc(-c2ncc[nH]2)c2ccccc12
GFP fluorescence, higher = induction: inactive

Oc1c(C(Nc2cccc(C(F)(F)F)c2)c2ccncc2)ccc2cccnc12 (configuration not stated)
GFP fluorescence, higher = induction: inactive

Cc1ccc(N/N=C(\C#N)C(N)=S)c(C)c1
GFP fluorescence, higher = induction: inactive

O=C1c2sc3nc4ccccc4n3c2C(=O)N1c1ccccc1Cl
GFP fluorescence, higher = induction: inactive

O=C(Nc1nc(-c2ccccn2)cs1)C1COc2ccccc2O1 (configuration not stated)
GFP fluorescence, higher = induction: inactive

Cc1cccc(C)c1NC(=O)C(Cl)C(=O)c1ccccc1 (configuration not stated)
GFP fluorescence, higher = induction: inactive

COc1ccccc1OCCCc1c(C)n[nH]c1C
GFP fluorescence, higher = induction: inactive

Cc1ccc(C(=O)Oc2oc(-c3ccco3)nc2C=Nc2ccc(Cl)cc2)cc1
GFP fluorescence, higher = induction: inactive

CCCOc1ccc(C(=O)NNC(=S)NC(=O)CC)cc1
EC50: 3100 nM

COc1cc(C=C2C(=O)c3ccccc3C2=O)cc(OC)c1
GFP fluorescence, higher = induction: inactive

COc1cc(NC(=O)c2cccc(C)c2)ccc1NC(=O)c1cc2ccccc2o1
GFP fluorescence, higher = induction: inactive

CCCCCCCCC/C(=N\O)c1ccccn1
GFP fluorescence, higher = induction: inactive

O=C(Nc1cccc(-c2csc(Nc3ccccc3)n2)c1)c1ccccc1
GFP fluorescence, higher = induction: inactive

CCc1ccc2c(c1)/C(=C/C(=O)c1cccs1)C(=O)N2
GFP fluorescence, higher = induction: inactive

Cc1ccc(NC(=O)c2cc(N3C(=O)C=CC3=O)ccc2N2CCOCC2)cc1Cl
GFP fluorescence, higher = induction: inactive

Cc1cc(C)c2c(c1)/C(=C/C(=O)c1ccc(Br)s1)C(=O)N2
GFP fluorescence, higher = induction: inactive

O=C(NC(=S)NNC(=O)[C@H]1C[C@@H]1c1ccccc1)c1cccc(F)c1
GFP fluorescence, higher = induction: inactive

COc1cc(/C=C2\C(=O)ON=C2c2ccc(Cl)cc2)ccc1O
GFP fluorescence, higher = induction: inactive

COc1cccc(N=Cc2nc(-c3ccccc3)oc2OC(C)=O)c1
GFP fluorescence, higher = induction: inactive
